We go through one molecule from patent publication US20250195666A1, “MIR-142 COMPOUNDS AND USES THEREOF” (City of Hope, priority 2021, published 2025).

This assay deals with miR-142^−/−BCR-ABL LSKs.

Experimental: LSKs from diseased miR-142 null and miR-142 wt BCR-ABL mice were treated with CpG-M-miR-142 (2 μM) or SCR±NIL (2 μM) for 72 h.

As to `Cc1cn(-c2cc(NC(=O)c3ccc(C)c(Nc4nccc(-c5cccnc5)n4)c3)cc(C(F)(F)F)c2)cn1` [NIL, nilotinib], the apoptosis entry is reported as “lower apoptosis” and the cell growth entry is “higher cell growth”.
